# Measured values published in patent US7247714B2, “Protection against oxidative stress and inflammation by a cytoprotective response element” (Atherogenics, Inc., priority 2001, dated 2007).
# “Also recorded” adds a separate entry of the source.
# Tested on: p3xCPRE/Luc
# Assay: Activation of p3xCPRE/Luc by small molecular weight organic compounds (Table 6)
# Format: cell-based, human
# Conditions: luciferase activity 16 hours after exposure
# Experimental: In the in vitro assay system described above, a stable HeLa cell line was generated that contains a stably-integrated copy of the CPRE-Luc gene.
# HMECs and HeLa cells were transiently transfected with 1 μg of 3xCPRE-Luc and 0.1 μg of pRL-SV40. One day after transfection, cells were treated with the compounds listed in Table 6 Luciferase activities were determined 16 hours after exposure to the compounds. To generate stable HeLa cell lines that contain a stably-integrated copy of the CPRE-Luc gene, HeLa cells were transfected with p3xCPRE-Luc plus pcDNA-LacZ-Hyg (an expression vector containing the hygromycin drug resistance gene) using SuperFeet transfection reagent. Two days after transfection, cells were cultured in hygromycin (400 μg/ml)-containing selection medium until individual colonies were identified. The colonies were expanded and the presence of CPRE-Luc-containing clones was examined by inducible luciferase activity. […]
row,SMILES,CPRE Activity: concentration to achieve a two-fold induction of CPRE activity over control [µM]
1,"COc1ccc(/C=C/C(=O)c2cc(C(C)(C)C)c(OC)c(C(C)(C)C)c2)cc1 [Compound C, 1-(3,5-di-tert-butyl-4-methoxyphenyl)-3-(4-methoxyphenyl)-propenone]",5
2,"COc1cc(/C=C/C(=O)c2ccc(OC)c(OC)c2OC)cc(-c2cccs2)c1OC [Compound G, 3-(3,4-Dimethoxy-5-thiophen-2-ylphenyl)-1-(2,3,4-trimethoxy-phenyl)propenone]",3
3,COc1ccc(COc2ccc(C(=O)/C=C/c3cc(OC)c(OC)c(OC)c3)cc2OC)cc1 [K],2
4,"COc1cc(OC)c(C(=O)/C=C/c2cc(Br)c(OC)c(OC)c2)cc1OC [F, 1-(3-Bromo-4,5-dimethoxyphenyl)-1-(2,4,5-trimethoxy-phenyl)propenone]",1
5,"COc1cc2c(cc1OC)C(=O)/C(=C/c1cc(Br)c(OC)c(OC)c1)CC2 [J, 2-(3-Bromo-4,5-dimethoxy-benzylidene)-6,7-dimethoxy-3,4-dihydro-2H-naphthalen-1-one.]",3
6,"COc1cc(OC)c(-c2cc3ccccc3s2)cc1/C=C/C(=O)c1cc(OC)c([O-])c(OC)c1.[Na+] [P, Sodium 4-[3-(5-benzo[b]thiophene-2-yl-2,4-dimethoxy-phenyl)acryloyl]-2,6-dimethoxyphenolate]",1
7,"COc1c(C(C)(C)C)cc(C(=O)/C=C/c2ccccc2)cc1C(C)(C)C [D, 1-(3,5-Di-tert-butyl-4-methoxyphenyl)-3-phenyl-propenone]",2.5
8,"COc1cc(OC)c(-c2cc3ccccc3s2)cc1/C=C/C(=O)c1cc(OC)c(O)c(OC)c1 [O, 3-(5-Benzo[b]thiophene-2-yl-2,4-dimethoxy-phenyl)-1-(4-hydroxy-3,5-dimethoxyphenyl)-propenone]",0.7
9,"COc1cc(OCC(=O)[O-])c(/C=C/C(=O)c2cc(OC)c(OC)c(OC)c2)cc1-c1cc2ccccc2s1.[Na+] [R, Sodium {4-benzo[b]thiophene-2-yl-5-methoxy-2-[3-oxo-3-(3,4,5-trimethoxyphenyl)-propenyl]phenoxy}-acetate]",14
10,"COc1cc(OC)c(-c2cc3ccccc3s2)cc1/C=C/C(=O)c1cc(OC)c(OCC(=O)[O-])c(OC)c1.[Na+] [N, Sodium {4-[3-(5-benzo[b]thiophene-2-yl-2,4-dimethoxy-phenyl)acryloyl]-2,6-dimethoxyphenoxy}-acetate]",1.4
11,"COc1ccc(-c2cccs2)cc1/C=C/C(=O)c1cc(OC)c(OC)c(OC)c1 [H, 3-(2-Methoxy-5-thiophen-2-ylphenyl)-1-(3,4,5-trimethoxy-phenyl)propenone]",2
12,"COc1cc(OC)c(-c2cc3ccccc3s2)cc1/C=C/C(=O)c1ccc(OC)c(OC)c1 [M, 3-(5-Benzo[b]thiophene-2-yl-2,4-dimethoxy-phenyl)-1-(3,4-dimethoxyphenyl)-propenone]",2.5
13,"CCOc1cc(OCC)c(C(=O)/C=C/c2cc(Br)c(OC)c(OC)c2)cc1OCC [E, 3-(3-Bromo-4,5-dimethoxyphenyl)-1-(2,4,5-triethoxyphenyl)-propenone]",12.5
14,"COc1cc(/C=C/C(=O)c2ccc(OC)c(OC)c2OC)cc(-c2cc3ccccc3s2)c1OC [Q, 3-(3-Benzo[b]thiophene-2-yl-4,5-dimethoxy-phenyl)-1-(2,3,4-trimethoxy-phenyl)propenone]",2.5
15,"O=C(/C=C/c1ccccc1)c1ccccc1 [B, 1,3-diphenylpropenone]",25
16,"COc1ccc(C(=O)/C=C/c2ccc(-c3cccs3)cc2)cc1OC [Compound I, 1-(3,4-Dimethoxy-phenyl)-3-(4-thiophen-2-ylphenyl)propenone]",8
17,"COc1ccc(-c2cccs2)cc1/C=C/C(=O)c1ccc(OCc2ccccn2)c(OC)c1 [L, 1-[3-Methoxy-4-(pyridin-2-ylmethoxy)-phenyl]-3-(2-methoxy-5-thiophen-2-yl-phenyl)propenone]",0.7

# Tested on: p3xCPRE/Luc
# Assay: p3xCPRE/Luc reporter, transient transfection in HeLa cells
# Format: cell-based, human
# Conditions: t-BHQ 25 μM
# Experimental: HMEC cells (passage 20) and HeLa cells were seeded into 6 well plates and were grown to approximately 60-70% confluency. Cells were transfected with 2 μg (HeLa) or 1 μg (HMEC) each of p3xCPRE/Luc reporter and Nrf-2 expression vector (an expression vector containing the full-length murine Nrf-2 gene under the control of the CMV promoter (Asakura & Karino (1990) Circ Res, 66:1045-1066). Cells were cultured for an additional 48 hours, and luciferase activity was determined (Promega). An average of at least three independent determinations were made for each experimental sample. Results are expressed as ratio of firefly/renilla luciferase.
# (§1) In an effort to determine the utility of the CPRE-Luc reporter construct for the identification of small molecular weight compounds that activate the CPRE, the p3xCPRE/Luc reporter was transiently transfected into both HeLa and endothelial cells (HMECs). […] Similar results were obtained in HeLa cells with both t-BHQ and compound A (FIG. 12b).
# (§2) HMECs and HeLa cells were transiently transfected with 1 μg of 3xCPRE-Luc and 0.1 μg of pRL-SV40. One day after transfection, cells were treated with t-BHQ or compound A. Luciferase activities were determined 16 hours after exposure to tBHQ. To generate stable HeLa cell lines that contain a stably-integrated copy of the CPRE-Luc gene, HeLa cells were transfected with p3xCPRE-Luc plus pcDNA-LacZ-Hyg (an expression vector containing the hygromycin drug resistance gene) using SuperFect transfection reagent. Two days after transfection, cells were cultured in hygromycin (400 μg/ml)-containing selection medium until individual colonies were identified. The colonies were expanded and the presence of CPRE-Luc-containing clones was examined by inducible luciferase activity. All experiments are an average of at least three independent determinations for each experimental sample.
row,SMILES,p3xCPRE/Luc activity
1,"CC(C)(C)c1cc(O)ccc1O [t-BHQ, reference compound]",significantly increased

# Tested on: p3xCPRE/Luc
# Assay: p3xCPRE/Luc reporter, transient transfection in HMEC cells
# Format: cell-based, human
# Conditions: t-BHQ 20 μM
# Experimental: as §1, §2
row,SMILES,p3xCPRE/Luc activity
1,"CC(C)(C)c1cc(O)ccc1O [t-BHQ, reference compound]",induced CPRE-dependent gene expression; also recorded: significantly increased

# Tested on: murine model of allergen-induced peritonitis
# Assay: Murine model of allergen-induced peritonitis (Type 1 hypersensitivity), eosinophil recruitment
# Format: in vivo, mouse
# Conditions: Compound G 50 mg/kg i.v., peritoneal fluid 48 hrs post-challenge
# Experimental: To evaluate the anti-inflammatory potential of compound A, a murine model of Type 1 hypersensitivity was used. In this model mice are sensitized to ovalbumin and subsequently challenged with ovalbumin by intraperitoneal injection. This leads to eosinophil recruitment and accumulation in the peritoneal cavity 24-48 hours after the challenge.
# 6-8 week old Balb/c mice (weighing 20-30 g) were given subcutaneous injections of ovalbumin in alum (0.4 ml of 100 μg ovalbumin and 3.3 mg of Alum Inject) on days 0 and 7. The mice were challenged on day 14 with an intraperitoneal injection of ovalbumin (10 μg in 0.2 ml saline). The mice were sacrificed and peritoneal lavage fluid collected 48 hours after the challenge. The peritoneal fluid was concentrated and slide smears made using a cytospin centrifuge. Slides were stained with Diff-Quik and differential counts obtained by counting 300 cells. Compound A was administered by intravenous injection, in a vehicle composed of 95% Liposyn and 5% Tween 20, 4 or 1 hour prior to challenge. Compound A was compared to dexamethosone administered orally at a dose of 2.5 mg/kg/d.
# In a common allergic inflammation, balb/C mice were divided into two groups: control/vehicle and Compound G treated. They were then sensitized to ovalbumin on days 0 and 7 with a subcutaneous injection of ovalbumin absorbed in aluminum hydroxide. The treated group was dosed i.v. 50 mg/kg in liposyn/tween and vehicle one day prior to challenge. The mice were then challenged with an intraperitoneal injection of ovalbumin on day 14 and sacrificed 48 hrs post-challenge. Peritoneal fluid was collected and spun down onto slides. Slides were stained with DiffQuik and a differential performed.
row,SMILES,Inhibition of eosinophilia compared with vehicle controls [%]
1,"COc1cc(/C=C/C(=O)c2ccc(OC)c(OC)c2OC)cc(-c2cccs2)c1OC [Compound G, 3-(3,4-Dimethoxy-5-thiophen-2-ylphenyl)-1-(2,3,4-trimethoxy-phenyl)propenone]",39

# Same assay, conditions: Compound G 50 mg/kg/d intravenous
row,SMILES,Eosinophil levels in peritoneal fluid (percent eosinophils)
1,"COc1cc(/C=C/C(=O)c2ccc(OC)c(OC)c2OC)cc(-c2cccs2)c1OC [Compound G, 3-(3,4-Dimethoxy-5-thiophen-2-ylphenyl)-1-(2,3,4-trimethoxy-phenyl)propenone]",significantly decreased
